Assay results from US20120190666A1, “Heteroaryl Compounds as PIKK Inhibitors” (Amgen Inc., priority 2009, published 2012).
pIC50: −log10 of the molar value.

Tests used:
mTOR = mTOR (Homo sapiens, UniProt P42345); test: mTOR LanthaScreen (TR-FRET, phosphorylation of 4EBP1); type: biochemical; settings: phosphorylation of GFP-4E-BP1, 10 μM ATP, 90 minutes
Procedure: The mTOR LanthaScreen is a TR-FRET assay measuring the phosphorylation of mTOR's substrate 4EBP1. 384 well compound plates were prepared containing 1 μl of compound per well starting at 5 mM and diluted 1:2 across the row, resulting in a 22 well serial dilution. 24 μl of assay buffer (Invitrogen, PV4794) with 2 mM DTT was added to the compound plate in rows 1-24 using the VELOCITY 11™ VPREP™ 384 ST resulting in a DMSO concentration of 4%. The compound plate was mixed and 2.5 μl of serially diluted compound or controls was added to the assay plate (Costar, 3658).
The assay was conducted on the PerkinElmer® FlexDrop PLUS. A 5 μl mix of 800 nM GFP-4E-BP1 (Invitrogen, PV4759) and 20 μM ATP (Amgen) was added to rows 1-24. 2.5 μl of 0.6 μg/ml of mTOR Enzyme (Amgen) was added to rows 1-23. 2.5 μl of assay buffer was added to row 24 for the low control. The final concentration of the compounds was 50 μM serially diluted to 23.84 pM in 1% DMSO. […] The final concentrations in the assay reagents were 400 nM GFP-4E-BP1, 10 μM of ATP and 0.15 μg/ml of mTOR enzyme. The compound, enzyme, and substrate were incubated for 90 minutes. At this point, 10 μl of stop solution was added (20 mM Tris, pH 7.5 (Invitrogen, 15567-027), 0.02% Sodium Azide (Teknova, S0208), 0.01% NP-40 (Roche, 11754599001), 20 mM EDTA (Invitrogen, 15575-038) and 4 nM of Tb-anti-p4E-BP1 (Invitrogen, PV4758)) for a final concentration of 2 nM of Tb-anti-p4E-BP1.
Sixty minutes later the plates were read on the PerkinElmer® EnVision™ 2103 Multilable Reader using the Excitation filter 340 nm and the Emission filters 520 nm and 495 nm.

PI3Kα = target: T1, PI3Kα (Homo sapiens, UniProt P42336); test: In vitro PI3K AlphaScreen assay, PI3Kα; type: biochemical; settings: PI(4,5)P2 substrate, 20 minutes at room temperature, read-out: P13Kalpha IC50 um
T1 construct: Full length p110 subunits of PI3K α, β and δ, N-terminally labeled with polyHis tag; polyHis (N); made in house; host or cells: Sf9 insect cells (baculovirus)
Outline: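 PI3Kα at 1.6 nM (2× stock) with PI(4,5)P2 10 μM and ATP 20 μM (2× stocks) in Tris pH 7, MgCl2, cholate, NaCl, DTT; 20 min at room temperature. Quenched with biotin-IP4/streptavidin-Donor beads, then GST-PIP3-binding protein/anti-GST Acceptor beads, 1.5 h dark; PIP3 formation read as loss of AlphaScreen signal.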

T1 sequence (P42336 whole entry): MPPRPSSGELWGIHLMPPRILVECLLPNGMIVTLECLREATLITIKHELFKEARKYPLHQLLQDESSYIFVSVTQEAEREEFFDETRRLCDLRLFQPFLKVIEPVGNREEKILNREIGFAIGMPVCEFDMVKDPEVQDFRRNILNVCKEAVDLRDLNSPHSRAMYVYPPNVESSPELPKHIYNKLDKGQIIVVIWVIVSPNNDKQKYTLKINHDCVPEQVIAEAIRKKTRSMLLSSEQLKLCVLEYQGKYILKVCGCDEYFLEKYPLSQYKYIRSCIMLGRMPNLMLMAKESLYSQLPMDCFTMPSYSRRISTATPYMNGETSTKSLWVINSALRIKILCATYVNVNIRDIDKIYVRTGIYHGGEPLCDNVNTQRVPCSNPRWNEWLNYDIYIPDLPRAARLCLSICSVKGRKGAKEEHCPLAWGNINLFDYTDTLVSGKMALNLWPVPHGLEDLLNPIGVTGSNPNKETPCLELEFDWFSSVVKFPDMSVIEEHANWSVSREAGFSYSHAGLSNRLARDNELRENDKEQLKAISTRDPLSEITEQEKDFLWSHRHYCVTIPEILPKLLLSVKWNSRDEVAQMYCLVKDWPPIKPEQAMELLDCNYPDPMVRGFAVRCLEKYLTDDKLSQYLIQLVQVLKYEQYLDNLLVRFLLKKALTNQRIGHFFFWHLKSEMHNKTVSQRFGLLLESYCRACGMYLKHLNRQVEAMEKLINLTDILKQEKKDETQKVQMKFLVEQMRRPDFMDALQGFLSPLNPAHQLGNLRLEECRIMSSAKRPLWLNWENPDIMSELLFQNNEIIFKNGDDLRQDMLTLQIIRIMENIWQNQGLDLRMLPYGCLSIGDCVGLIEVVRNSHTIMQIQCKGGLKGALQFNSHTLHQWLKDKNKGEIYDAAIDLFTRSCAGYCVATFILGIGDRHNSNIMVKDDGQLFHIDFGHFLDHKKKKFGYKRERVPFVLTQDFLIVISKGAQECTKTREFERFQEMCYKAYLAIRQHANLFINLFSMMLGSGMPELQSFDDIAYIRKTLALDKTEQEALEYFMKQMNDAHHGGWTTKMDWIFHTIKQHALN
T1 sequence (P27986 whole entry partner): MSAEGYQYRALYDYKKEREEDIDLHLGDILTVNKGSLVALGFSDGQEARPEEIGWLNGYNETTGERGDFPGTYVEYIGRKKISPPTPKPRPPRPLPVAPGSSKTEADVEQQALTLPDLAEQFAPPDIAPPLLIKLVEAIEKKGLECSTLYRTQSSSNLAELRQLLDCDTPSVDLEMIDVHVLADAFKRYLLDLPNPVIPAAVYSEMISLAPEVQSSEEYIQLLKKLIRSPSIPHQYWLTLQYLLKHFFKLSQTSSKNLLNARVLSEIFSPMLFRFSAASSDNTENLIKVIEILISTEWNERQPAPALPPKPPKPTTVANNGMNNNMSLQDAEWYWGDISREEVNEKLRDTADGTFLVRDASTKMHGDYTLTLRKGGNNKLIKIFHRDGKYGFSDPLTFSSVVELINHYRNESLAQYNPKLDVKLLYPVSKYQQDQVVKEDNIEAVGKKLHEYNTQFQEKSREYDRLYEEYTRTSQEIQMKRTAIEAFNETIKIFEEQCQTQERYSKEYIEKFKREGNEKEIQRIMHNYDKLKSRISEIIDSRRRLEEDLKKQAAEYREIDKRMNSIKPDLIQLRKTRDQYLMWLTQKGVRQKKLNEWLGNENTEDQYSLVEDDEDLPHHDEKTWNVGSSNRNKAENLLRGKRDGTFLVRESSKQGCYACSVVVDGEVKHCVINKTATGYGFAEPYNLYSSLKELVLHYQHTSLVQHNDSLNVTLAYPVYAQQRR

Cc1nc(Nc2cc(OCC(F)(F)F)cnn2)cc(-c2c(Nc3cc[nH]n3)nc3cccnn23)n1 [Cpd 60, 3-(2-methyl-6-((5-(2,2,2-trifluoroethoxy)-3-pyridazinyl)amino)-4-pyrimidinyl)-N-1H-pyrazol-3-ylimidazo[1,2-b]pyridazin-2-amine]
pIC50 (mTOR): 8.00 | pIC50 (PI3Kα): 4.41

CC(=O)Nc1cc(-c2c(Nc3ccn(C)n3)nc3c(F)cccn23)nc(C)n1 [Cpd 63, N-(6-(8-fluoro-2-((1-methyl-1H-pyrazol-3-yl)amino)imidazo[1,2-a]pyridin-3-yl)-2-methyl-4-pyrimidinyl)acetamide]
pIC50 (mTOR): 7.22 | pIC50 (PI3Kα): 5.69

Cc1nc(N)cc(-c2c(Nc3ccn(C)n3)nc3ccc(-c4cccc(S(C)(=O)=O)c4)cn23)n1 [Cpd 65, 3-(6-amino-2-methyl-4-pyrimidinyl)-N-(1-methyl-1H-pyrazol-3-yl)-6-(3-(methylsulfonyl)phenyl)imidazo[1,2-a]pyridin-2-amine]
pIC50 (mTOR): 6.47 | pIC50 (PI3Kα): 5.06

CC(=O)n1ccc(Nc2nc3cccnn3c2-c2cc(N)nc(C)n2)n1 [Cpd 67, N-(1-acetyl-1H-pyrazol-3-yl)-3-(6-amino-2-methyl-4-pyrimidinyl)imidazo[1,2-b]pyridazin-2-amine]
pIC50 (mTOR): 8.00 | pIC50 (PI3Kα): 6.12

COCCOc1ccc2nc(Nc3cc[nH]n3)c(-c3cc(N)nc(C)n3)n2n1 [Cpd 69, 3-(6-amino-2-methyl-4-pyrimidinyl)-6-(2-methoxyethoxy)-N-1H-pyrazol-3-ylimidazo[1,2-b]pyridazin-2-amine]
pIC50 (mTOR): 8.40 | pIC50 (PI3Kα): 7.05

CNc1cc(-c2c(Nc3cc[nH]n3)nc3ccc(N4CCOCC4)nn23)nc(C)n1 [Cpd 72, 3-(2-methyl-6-(methylamino)-4-pyrimidinyl)-6-(4-morpholinyl)-N-1H-pyrazol-3-ylimidazo[1,2-b]pyridazin-2-amine]
pIC50 (mTOR): 7.40 | pIC50 (PI3Kα): 6.96

Cc1nc(N)cc(-c2c(Nc3cc[nH]n3)nc3ccc(OCCN4CCCC4)nn23)n1 [Cpd 73]
pIC50 (mTOR): 7.30 | pIC50 (PI3Kα): 6.10

Cc1nc(NC(=O)N(C)C)cc(-c2c(Nc3cc[nH]n3)nc3cccnn23)n1 [Cpd 75, 1,1-dimethyl-3-(2-methyl-6-(2-(1H-pyrazol-3-ylamino)imidazo[1,2-b]pyridazin-3-yl)-4-pyrimidinyl)urea]
pIC50 (mTOR): 5.85 | pIC50 (PI3Kα): 4.38

Cc1nc(NC(=O)N2CCN(C)CC2)cc(-c2c(Nc3cc[nH]n3)nc3cccnn23)n1 [Cpd 77, 4-methyl-N-(2-methyl-6-(2-(1H-pyrazol-3-ylamino)imidazo[1,2-b]pyridazin-3-yl)-4-pyrimidinyl)-1-piperazinecarboxamide]
pIC50 (mTOR): 5.57 | pIC50 (PI3Kα): 4.82

Cc1nc(NCC#N)cc(-c2c(Nc3cc[nH]n3)nc3cccnn23)n1 [Cpd 90]
pIC50 (mTOR): 7.52 | pIC50 (PI3Kα): 6.23

Cc1nc(NC(=O)CN(C)C)cc(-c2c(Nc3ccn(C)n3)nc3cccnn23)n1 [Cpd 92]
pIC50 (mTOR): 6.11 | pIC50 (PI3Kα): 4.70

Cc1nc(N)nc(-c2c(Nc3cc[nH]n3)nc3ccc(C4=CCN(C(=O)OC(C)(C)C)CC4)cn23)n1 [Cpd 97, tert-butyl 4-(3-(4-amino-6-methyl-1,3,5-triazin-2-yl)-2-(1H-pyrazol-3-ylamino)imidazo[1,2-a]pyridin-6-yl)-3,6-dihydro-1(2H)-pyridinecarboxylate]
pIC50 (mTOR): 7.80 | pIC50 (PI3Kα): 6.46

CNC(=O)c1ccc(-c2ccc3nc(Nc4cc[nH]n4)c(-c4nc(C)nc(N)n4)n3c2)cc1F [Cpd 99, 4-(3-(4-amino-6-methyl-1,3,5-triazin-2-yl)-2-(1H-pyrazol-3-ylamino)imidazo[1,2-a]pyridin-6-yl)-2-fluoro-N-methylbenzamide]
pIC50 (mTOR): 8.40 | pIC50 (PI3Kα): 6.96

CC(=O)NCc1ccc(-c2ccc3nc(Nc4cc[nH]n4)c(-c4nc(C)nc(N)n4)n3c2)cc1 [Cpd 100, N-(4-(3-(4-amino-6-methyl-1,3,5-triazin-2-yl)-2-(1H-pyrazol-3-ylamino)imidazo[1,2-a]pyridin-6-yl)benzyl)acetamide]
pIC50 (mTOR): 9.00 | pIC50 (PI3Kα): 6.38

Cc1nc(N)nc(-c2c(Nc3cc[nH]n3)nc3ccc(-c4ccoc4)cn23)n1 [Cpd 105, 3-(4-amino-6-methyl-1,3,5-triazin-2-yl)-6-(3-furanyl)-N-1H-pyrazol-3-ylimidazo[1,2-a]pyridin-2-amine]
pIC50 (mTOR): 7.85 | pIC50 (PI3Kα): 7.40

Cc1nc(N)nc(-c2c(Nc3cc[nH]n3)nc3ccc(-c4ccc(F)cc4C)cn23)n1 [Cpd 107, 3-(4-amino-6-methyl-1,3,5-triazin-2-yl)-6-(4-fluoro-2-methylphenyl)-N-1H-pyrazol-3-ylimidazo[1,2-a]pyridin-2-amine]
pIC50 (mTOR): 7.40 | pIC50 (PI3Kα): 6.60

CSc1cccc(-c2ccc3nc(Nc4cc[nH]n4)c(-c4nc(C)nc(N)n4)n3c2)c1 [Cpd 109, 3-(4-amino-6-methyl-1,3,5-triazin-2-yl)-6-(3-(methylsulfanyl)phenyl)-N-1H-pyrazol-3-ylimidazo[1,2-a]pyridin-2-amine]
pIC50 (mTOR): 7.30 | pIC50 (PI3Kα): 6.33

CC(=O)Nc1cccc(-c2ccc3nc(Nc4cc[nH]n4)c(-c4nc(C)nc(N)n4)n3c2)c1 [Cpd 114, N-(3-(3-(4-amino-6-methyl-1,3,5-triazin-2-yl)-2-(1H-pyrazol-3-ylamino)imidazo[1,2-a]pyridin-6-yl)phenyl)acetamide]
pIC50 (mTOR): 8.00 | pIC50 (PI3Kα): 7.00

Cc1nc(N)nc(-c2c(Nc3cc[nH]n3)nc3ccc(-c4cccc(NC(=O)C5CC5)c4)cn23)n1 [Cpd 115, N-(3-(3-(4-amino-6-methyl-1,3,5-triazin-2-yl)-2-(1H-pyrazol-3-ylamino)imidazo[1,2-a]pyridin-6-yl)phenyl)cyclopropanecarboxamide]
pIC50 (mTOR): 8.52 | pIC50 (PI3Kα): 7.40

Cc1nc(NC(=O)C2CC2)cc(-c2c(Nc3cc[nH]n3)nc3cccnn23)n1 [Cpd 120]
pIC50 (mTOR): 6.54 | pIC50 (PI3Kα): 6.00

COCC(=O)Nc1cc(-c2c(Nc3ccn(C)n3)nc3cccnn23)nc(C)n1 [Cpd 123, 2-methoxy-N-(2-methyl-6-(2-((1-methyl-1H-pyrazol-3-yl)amino)imidazo[1,2-b]pyridazin-3-yl)-4-pyrimidinyl)acetamide]
pIC50 (mTOR): 6.85 | pIC50 (PI3Kα): 5.16

Cc1nc(NC(=O)CC#N)cc(-c2c(Nc3ccn(C)n3)nc3ccccn23)n1 [Cpd 126, 2-cyano-N-(2-methyl-6-(2-((1-methyl-1H-pyrazol-3-yl)amino)imidazo[1,2-a]pyridin-3-yl)-4-pyrimidinyl)acetamide]
pIC50 (mTOR): 6.16 | pIC50 (PI3Kα): 5.27

Cc1nc(NC(=O)CC(F)(F)F)cc(-c2c(Nc3ccn(C)n3)nc3cccnn23)n1 [Cpd 134, 3,3,3-trifluoro-N-(2-methyl-6-(2-((1-methyl-1H-pyrazol-3-yl)amino)imidazo[1,2-b]pyridazin-3-yl)-4-pyrimidinyl)propanamide]
pIC50 (mTOR): 6.09 | pIC50 (PI3Kα): 5.68

Cc1nc(Nc2ccc(N3CCOC(C)C3)nn2)cc(-c2c(Nc3cc[nH]n3)nc3cccnn23)n1 (centres unmarked) [Cpd 140, 3-(2-methyl-6-((6-(2-methyl-4-morpholinyl)-3-pyridazinyl)amino)-4-pyrimidinyl)-N-1H-pyrazol-3-ylimidazo[1,2-b]pyridazin-2-amine]
pIC50 (mTOR): 6.96 | pIC50 (PI3Kα): 7.22

Cc1nc(N)cc(-c2c(Nc3cccc(N4CCN(C)CC4)c3)nc3cccnn23)n1 [Cpd 151, 3-(6-amino-2-methyl-4-pyrimidinyl)-N-(3-(4-methyl-1-piperazinyl)-phenyl)imidazo[1,2-b]pyridazin-2-amine]
pIC50 (mTOR): 6.37 | pIC50 (PI3Kα): 5.02

Cc1nc(N)nc(-c2c(Nc3cc[nH]n3)nc3ccc(Nc4ccncc4)cn23)n1 [Cpd 166]
pIC50 (mTOR): 7.60 | pIC50 (PI3Kα): 5.25

Cc1nc(N)nc(-c2c(Nc3cc[nH]n3)nc3ccc(-c4ccc5c(c4)CCNC5=O)cn23)n1 [Cpd 175, 6-(3-(4-amino-6-methyl-1,3,5-triazin-2-yl)-2-(1H-pyrazol-3-ylamino)imidazo[1,2-a]pyridin-6-yl)-3,4-dihydro-1(2H)-isoquinolinone]
pIC50 (mTOR): 8.70 | pIC50 (PI3Kα): 6.85

Cc1nc(N)nc(-c2c(Nc3cc[nH]n3)nc3ccc(-c4ccc(C(=O)O)cc4C)cn23)n1 [Cpd 177, 4-(3-(4-amino-6-methyl-1,3,5-triazin-2-yl)-2-(1H-pyrazol-3-ylamino)imidazo[1,2-a]pyridin-6-yl)-3-methylbenzoic acid]
pIC50 (mTOR): 9.00 | pIC50 (PI3Kα): 7.10
